Reference: patent US9695155B2, “Herbicidal substituted pyrimidinyloxy benzene compounds” (E. I. DU PONT DE NEMOURS AND COMPANY, priority 2013, dated 2017)

Columns and labels:
corn [1] = experiment: Test C postemergence; format: in vivo, Zea mays; details: for Corn plant response rating / Plant response rating, Corn: scale 0 to 100 (0 no effect, 100 complete control)
Procedure, shortened: (§1)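 Seeds were sown in loam–sand blend and sprayed preemergence, while plants at 1- to 4-leaf stage (2–18 cm) in peat-based medium received postemergence sprays; test chemicals were formulated in a non-phytotoxic solvent with surfactant. After 13–15 days in a greenhouse, injury was rated visually against controls, 0 (no effect) to 100 (complete control).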

johnsongrass = experiment: Test C postemergence; format: in vivo, Sorghum halepense; details: for Johnsongrass plant response rating / Plant response rating, Johnsongrass: scale 0 to 100 (0 no effect, 100 complete control)
Procedure, shortened: as §1

large (Lg) crabgrass = experiment: Test A preemergence; format: in vivo, Digitaria sanguinalis; details: for Crabgrass, Large plant response rating: 500 g ai/ha
Procedure, shortened: (§2)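 Scoring: eye-based comparison with untreated controls, 0 for no effect through 100 for complete control, at about day 10. Treatments: directed soil spray preemergence; foliar spray postemergence on 2–10 cm plants at the one- to two-leaf stage. Medium: loam soil with sand.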

velvetleaf [2] = experiment: Test C postemergence; format: in vivo, Abutilon theophrasti
Procedure, shortened: as §1

morningglory [3] = experiment: Test C postemergence; format: in vivo, Ipomoea coccinea
Procedure, shortened: as §1

corn [4] = experiment: Test A postemergence; format: in vivo, Zea mays; details: 0 to 100 scale where 0 is no effect and 100 is complete control
Procedure, shortened: as §2

corn [5] = experiment: Test A preemergence; format: in vivo, Zea mays; details: for Corn plant response rating: 500 g ai/ha
Procedure, shortened: as §2

waterhemp = experiment: Test C postemergence; format: in vivo, Amaranthus rudis
Procedure, shortened: as §1

oilseed rape = experiment: Test C postemergence; format: in vivo, Brassica napus
Procedure, shortened: as §1

velvetleaf [6] = experiment: Test A preemergence; format: in vivo, Abutilon theophrasti
Procedure, shortened: as §2

barnyardgrass = experiment: Test A postemergence; format: in vivo, Echinochloa crus-galli; details: 0 to 100 scale where 0 is no effect and 100 is complete control
Procedure, shortened: as §2

Heteranthera limosa = experiment: Test B flooded paddy test; format: in vivo; details: Flood, 250 g ai/ha; 0 to 100 scale where 0 is no effect and 100 is complete control
Procedure, shortened: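 Plants at 2-leaf stage; pots flooded to 3 cm above soil and compound applied directly into paddy water, depth held throughout. After 13 to 15 days in greenhouse, visual rating versus controls on 0 (no effect) to 100 (complete control) scale.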

giant foxtail [7] = experiment: Test C postemergence; format: in vivo, Setaria faberii; details: for Foxtail, Giant plant response rating / Plant response rating, Foxtail, Giant: scale 0 to 100 (0 no effect, 100 complete control)
Procedure, shortened: as §1

morningglory [8] = experiment: Test A postemergence; format: in vivo, Ipomoea spp.; details: 0 to 100 scale where 0 is no effect and 100 is complete control
Procedure, shortened: as §2

giant foxtail [9] = experiment: Test A postemergence; format: in vivo, Setaria faberii; details: 0 to 100 scale where 0 is no effect and 100 is complete control
Procedure, shortened: as §2

pigweed = experiment: Test C postemergence; format: in vivo, Amaranthus retroflexus
Procedure, shortened: as §1

[10] = 16 g ai/ha, postemergence, 0 is no effect, 100 is complete control
[11] = 31 g ai/ha, postemergence, visual rating, 13 to 15 days
[12] = 125 g ai/ha, postemergence, visual rating
[13] = 0 to 100 scale where 0 is no effect and 100 is complete control
[14] = 31 g ai/ha, postemergence, visual rating, scale 0 to 100 (0 no effect, 100 complete control), 13 to 15 days
[15] = 125 g ai/ha, postemergence, visual rating, scale 0 to 100 (0 no effect, 100 complete control)
[16] = Postemergence, 62 g ai/ha, scale 0 to 100 (0 no effect, 100 complete control)
[17] = 16 g ai/ha, postemergence, visual rating, 13 to 15 days
[18] = Postemergence, 31 g ai/ha, 13 to 15 days
[19] = 125 g ai/ha, 0 to 100 scale where 0 is no effect and 100 is complete control
[20] = 0 to 100 scale, 0 no effect, 100 complete control, approx. 10 days
[21] = Postemergence, 31 g ai/ha, scale 0 to 100 (0 no effect, 100 complete control), 13 to 15 days

SMILES: FC(F)(F)c1cnn(-c2c(Br)cccc2Oc2ncc(Cl)cn2)c1 [Compound 191]
- Plant response rating (0 to 100), Corn (corn [1]; [10]): 5
- Corn plant response rating (corn [1]; [11]): 5
- Plant response rating, Corn (corn [1]; [12]): 10
- Plant response rating, Corn (corn [1]; Postemergence, 62 g ai/ha): 10
- Plant response rating (0 to 100), Johnsongrass (johnsongrass; [10]): 30
- Johnsongrass plant response rating (johnsongrass; [11]): 10
- Plant response rating, Johnsongrass (johnsongrass; [12]): 10
- Plant response rating, Johnsongrass (johnsongrass; Postemergence, 62 g ai/ha): 15
- Crabgrass, Large plant response rating (0 to 100 scale) (large (Lg) crabgrass; 125 g ai/ha): 100
- Crabgrass, Large plant response rating (large (Lg) crabgrass; [13]): 100
- Plant response rating (0 to 100), Velvetleaf (velvetleaf [2]; [10]): 50
- Velvetleaf plant response rating (velvetleaf [2]; [14]): 65
- Plant response rating, Velvetleaf (velvetleaf [2]; [15]): 65
- Plant response rating, Velvetleaf (velvetleaf [2]; [16]): 75
- Plant response rating (0 to 100), Morningglory (morningglory [3]; [10]): 40
- Morningglory plant response rating (morningglory [3]; [14]): 85
- Plant response rating, Morningglory (morningglory [3]; [15]): 50
- Plant response rating, Morningglory (morningglory [3]; [16]): 85
- Corn plant response rating (corn [4]; 125 g ai/ha): 20
- Plant response rating, Corn (corn [4]; 500 g ai/ha): 40
- Corn plant response rating (0 to 100 scale) (corn [5]; 125 g ai/ha): 0
- Corn plant response rating (corn [5]; [13]): 30
- Plant response rating (0 to 100), Waterhemp (waterhemp; [10]): 80
- Waterhemp plant response rating (waterhemp; [14]): 85
- Plant response rating, Waterhemp (waterhemp; [15]): 95
- Plant response rating, Waterhemp (waterhemp; [16]): 95
- Plant response rating (0 to 100), Oilseed Rape (oilseed rape; [10]): 10
- Oilseed Rape plant response rating (oilseed rape; [14]): 45
- Plant response rating, Oilseed Rape (oilseed rape; [15]): 50
- Plant response rating, Oilseed Rape (oilseed rape; [16]): 50
- Velvetleaf plant response rating (0 to 100 scale) (velvetleaf [6]; 125 g ai/ha): 80
- Velvetleaf plant response rating (velvetleaf [6]; 500 g ai/ha, 0 to 100 scale where 0 is no effect and 100 is complete control): 90
- Barnyardgrass plant response rating (barnyardgrass; 125 g ai/ha): 50
- Plant response rating, Barnyardgrass (barnyardgrass; 500 g ai/ha): 90
- Plant response rating, Ducksalad (Heteranthera limosa): 95
- Plant response rating (0 to 100), Foxtail, Giant (giant foxtail [7]; [10]): 10
- Foxtail, Giant plant response rating (giant foxtail [7]; [11]): 10
- Plant response rating, Foxtail, Giant (giant foxtail [7]; [12]): 15
- Plant response rating, Foxtail, Giant (giant foxtail [7]; Postemergence, 62 g ai/ha): 10
- Morningglory plant response rating (morningglory [8]; 125 g ai/ha): 80
- Plant response rating, Morningglory (morningglory [8]; 500 g ai/ha): 100
- Foxtail, Giant plant response rating (giant foxtail [9]; 125 g ai/ha): 50
- Plant response rating, Foxtail, Giant (giant foxtail [9]; 500 g ai/ha): 90
- Plant response rating (0 to 100), Pigweed (pigweed; [10]): 95
- Pigweed plant response rating (pigweed; [14]): 85
- Plant response rating, Pigweed (pigweed; [15]): 98
- Plant response rating, Pigweed (pigweed; [16]): 95

SMILES: N#Cc1cccc(Oc2ncc(Cl)cn2)c1-n1cc(OC(F)F)cn1 [Compound 97]
- Corn plant response rating (corn [1]; [17]): 5
- Plant response rating (0 to 100), Corn (corn [1]; 125 g ai/ha, postemergence): 15
- Plant response rating, Corn (corn [1]; [18]): 5
- Plant response rating, Corn (corn [1]; Postemergence, 62 g ai/ha): 10
- Johnsongrass plant response rating (johnsongrass; [17]): 5
- Plant response rating (0 to 100), Johnsongrass (johnsongrass; 125 g ai/ha, postemergence): 5
- Plant response rating, Johnsongrass (johnsongrass; [18]): 5
- Plant response rating, Johnsongrass (johnsongrass; Postemergence, 62 g ai/ha): 15
- Plant response rating, Crabgrass, Large (large (Lg) crabgrass; [19]): 100
- Crabgrass, Large plant response rating (large (Lg) crabgrass; [20]): 100
- Plant response rating (0 to 100), Velvetleaf (velvetleaf [2]; 125 g ai/ha, postemergence): 70
- Plant response rating, Velvetleaf (velvetleaf [2]; [21]): 40
- Plant response rating, Velvetleaf (velvetleaf [2]; [16]): 75
- Plant response rating (0 to 100), Morningglory (morningglory [3]; 125 g ai/ha, postemergence): 95
- Plant response rating, Morningglory (morningglory [3]; [21]): 85
- Plant response rating, Morningglory (morningglory [3]; [16]): 85
- Plant response rating, Corn (corn [4]; 125 g ai/ha): 60
- Plant response rating, Corn (corn [4]; 500 g ai/ha): 90
- Plant response rating, Corn (corn [5]; [19]): 40
- Corn plant response rating (corn [5]; [20]): 60
- Plant response rating (0 to 100), Waterhemp (waterhemp; 125 g ai/ha, postemergence): 95
- Plant response rating, Waterhemp (waterhemp; [21]): 85
- Plant response rating, Waterhemp (waterhemp; [16]): 90
- Plant response rating (0 to 100), Oilseed Rape (oilseed rape; 125 g ai/ha, postemergence): 80
- Plant response rating, Oilseed Rape (oilseed rape; [21]): 60
- Plant response rating, Oilseed Rape (oilseed rape; [16]): 80
- Plant response rating, Velvetleaf (velvetleaf [6]; [19]): 100
- Plant response rating, Barnyardgrass (barnyardgrass; 125 g ai/ha): 90
- Plant response rating, Barnyardgrass (barnyardgrass; 500 g ai/ha): 100
- Plant response rating, Ducksalad (Heteranthera limosa): 95
- Foxtail, Giant plant response rating (giant foxtail [7]; [17]): 10
- Plant response rating (0 to 100), Foxtail, Giant (giant foxtail [7]; 125 g ai/ha, postemergence): 15
- Plant response rating, Foxtail, Giant (giant foxtail [7]; [18]): 5
- Plant response rating, Foxtail, Giant (giant foxtail [7]; Postemergence, 62 g ai/ha): 10
- Plant response rating, Morningglory (morningglory [8]; 125 g ai/ha): 90
- Plant response rating, Morningglory (morningglory [8]; 500 g ai/ha): 100
- Plant response rating, Foxtail, Giant (giant foxtail [9]; 125 g ai/ha): 90
- Plant response rating, Foxtail, Giant (giant foxtail [9]; 500 g ai/ha): 90
- Plant response rating (0 to 100), Pigweed (pigweed; 125 g ai/ha, postemergence): 95
- Plant response rating, Pigweed (pigweed; [21]): 85
- Plant response rating, Pigweed (pigweed; [16]): 85
